Laboratory results as given in patent publication US11053204B2, “Pyrimidinyloxy benzene derivatives as herbicides” (FMC Corporation, priority 2015, dated 2021).

Experiments:
Assay type in all cases: in vivo
[1] = tested on: Italian ryegrass (Lolium multiflorum); assay: Test A postemergence, visual injury rating
How it was run: (§1)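 Compounds in non-phytotoxic solvent with surfactant applied as soil spray preemergence, or postemergence to plants 2-10 cm at one- to two-leaf stage, in loam/sand. After approximately 10 days in greenhouse, injury rated visually versus untreated controls, 0 (no effect) to 100 (complete control).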

[2] = tested on: barnyardgrass (Echinochloa crus-galli); assay: Test A postemergence, visual injury rating; details: 0 to 100 scale, 0 is no effect, 100 is complete control, approximately 10 days
How it was run: as §1

[3] = tested on: blackgrass (Alopecurus myosuroides); assay: Test A postemergence, visual injury rating
How it was run: as §1

corn (Zea mays) = assay: Test A postemergence, visual injury rating
How it was run: as §1

[4] = tested on: galium (catchweed bedstraw, Galium aparine); assay: Test A postemergence, visual injury rating
How it was run: as §1

[5] = tested on: giant foxtail (Setaria faberii); assay: Test A postemergence, visual injury rating
How it was run: as §1

kochia (Kochia scoparia) = assay: Test A postemergence, visual injury rating
How it was run: as §1

[6] = tested on: pigweed (Amaranthus retroflexus); assay: Test A postemergence, visual injury rating
How it was run: as §1

[7] = tested on: ragweed (common ragweed, Ambrosia elatior); assay: Test A postemergence, visual injury rating
How it was run: as §1

[8] = tested on: wheat (Triticum aestivum); assay: Test A postemergence, visual injury rating
How it was run: as §1

[9] = tested on: lambsquarters (Chenopodium album); assay: Test C preemergence, plant response rating; details: Preemergence
How it was run: (§2)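 Visual injury score, 0 = no effect, 100 = complete control, assigned against untreated controls after 13 to 15 d in the greenhouse. Compounds were applied in a surfactant-containing non-phytotoxic solvent mix, preemergence to seeded loam/sand or silt loam soil, or postemergence to 1- to 4-leaf plants (2 to 18 cm).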

[10] = tested on: morningglory (Ipomoea coccinea); assay: Test C preemergence, plant response rating; details: Preemergence
How it was run: as §2

[11] = tested on: nutsedge, yellow (yellow nutsedge, Cyperus esculentus); assay: Test C preemergence, plant response rating; details: Preemergence
How it was run: as §2

[12] = tested on: velvetleaf (Abutilon theophrasti); assay: Test C preemergence, plant response rating; details: Preemergence
How it was run: as §2

[13] = tested on: waterhemp (common waterhemp, Amaranthus rudis); assay: Test C preemergence, plant response rating; details: Preemergence
How it was run: as §2

[14] = tested on: wheat (winter wheat, Triticum aestivum); assay: Test C preemergence, plant response rating; details: Preemergence
How it was run: as §2

[15] = tested on: barnyardgrass (Echinochloa crus-galli); assay: Test C postemergence, plant response rating; details: for Barnyardgrass plant response rating: scale 0 to 100 (0 no effect, 100 complete control)
How it was run: as §2

[16] = tested on: crabgrass, large (large crabgrass, Digitaria sanguinalis); assay: Test C postemergence, plant response rating; details: for Crabgrass, Large plant response rating: scale 0 to 100 (0 no effect, 100 complete control)
How it was run: as §2

[17] = tested on: ryegrass, Italian (Italian ryegrass, Lolium multiflorum); assay: Test C postemergence, plant response rating; details: for Ryegrass, Italian plant response rating: scale 0 to 100 (0 no effect, 100 complete control)
How it was run: as §2

[18] = 31 g ai/ha, 0 to 100 scale (0 no effect, 100 complete control)
[19] = 125 g ai/ha, 0 to 100 scale, 0 is no effect, 100 is complete control, approximately 10 days

N#CC(CCCC(F)(F)F)c1ccccc1Oc1ncc(Cl)cn1 (stereo not drawn) [Compound 144]
90: Barnyardgrass plant response rating ([2]; 125 g ai/ha) | Blackgrass plant response rating [3, 19] | Foxtail, Giant plant response rating [5, 19] | Kochia plant response rating (kochia (Kochia scoparia); [18]) | Pigweed plant response rating [6, 18]
5: Plant response rating, Wheat ([14]; 125 g ai/ha, scale of 0 to 100) | Plant response rating, Barnyardgrass ([15]; 16 g ai/ha, scale of 0 to 100) | Plant response rating, Barnyardgrass ([15]; 31 g ai/ha, scale 0 to 100) | Plant response rating, Ryegrass, Italian ([17]; 16 g ai/ha, scale of 0 to 100)
60: Foxtail, Giant plant response rating [5, 18] | Wheat plant response rating [8, 19] | Plant response rating, Nutsedge, Yellow ([11]; 62 g ai/ha, scale 0 to 100)
98: Plant response rating, Waterhemp ([13]; 31 g ai/ha, scale 0 to 100) | Plant response rating, Waterhemp ([13]; 62 g ai/ha, scale 0 to 100)
15: Plant response rating, Velvetleaf ([12]; 62 g ai/ha, scale 0 to 100) | Ryegrass, Italian plant response rating ([17]; 62 g ai/ha)
20: Corn plant response rating (corn (Zea mays); [18]) | Plant response rating, Morningglory ([10]; 125 g ai/ha, scale of 0 to 100) | Plant response rating, Nutsedge, Yellow ([11]; 31 g ai/ha, scale 0 to 100) | Crabgrass, Large plant response rating ([16]; 62 g ai/ha) | Ryegrass, Italian plant response rating ([17]; 125 g ai/ha)
100: Galium plant response rating [4, 19] | Kochia plant response rating (kochia (Kochia scoparia); [19]) | Pigweed plant response rating [6, 19] | Plant response rating, Waterhemp ([13]; 125 g ai/ha, scale of 0 to 100)
50: Blackgrass plant response rating [3, 18]
75: Plant response rating, Lambsquarters ([9]; 125 g ai/ha, scale of 0 to 100)
70: Plant response rating, Nutsedge, Yellow ([11]; 125 g ai/ha, scale of 0 to 100)
30: Ryegrass, Italian plant response rating [1, 18]
10: Ragweed plant response rating [7, 18] | Ragweed plant response rating [7, 19] | Wheat plant response rating [8, 18] | Plant response rating, Morningglory ([10]; 62 g ai/ha, scale 0 to 100) | Barnyardgrass plant response rating ([15]; 62 g ai/ha) | Barnyardgrass plant response rating ([15]; 125 g ai/ha) | Plant response rating, Crabgrass, Large ([16]; 16 g ai/ha, scale of 0 to 100) | Plant response rating, Ryegrass, Italian ([17]; 31 g ai/ha, scale 0 to 100)
65: Plant response rating, Lambsquarters ([9]; 62 g ai/ha, scale 0 to 100)
45: Plant response rating, Velvetleaf ([12]; 125 g ai/ha, scale of 0 to 100)
0: Plant response rating, Morningglory ([10]; 31 g ai/ha, scale 0 to 100) | Plant response rating, Velvetleaf ([12]; 31 g ai/ha, scale 0 to 100) | Plant response rating, Wheat ([14]; 62 g ai/ha, scale 0 to 100)
80: Ryegrass, Italian plant response rating [1, 19] | Corn plant response rating (corn (Zea mays); [19])
40: Barnyardgrass plant response rating ([2]; 31 g ai/ha) | Galium plant response rating [4, 18] | Plant response rating, Lambsquarters ([9]; 31 g ai/ha, scale 0 to 100)
25: Plant response rating, Crabgrass, Large ([16]; 31 g ai/ha, scale 0 to 100) | Crabgrass, Large plant response rating ([16]; 125 g ai/ha)

O=C(CCCC(F)(F)F)c1c(Cl)cccc1Oc1ncc(Cl)cn1 [Compound 143]
100: Galium plant response rating [4, 19] | Kochia plant response rating (kochia (Kochia scoparia); [19]) | Pigweed plant response rating [6, 18] | Pigweed plant response rating [6, 19] | Plant response rating, Waterhemp ([13]; 125 g ai/ha, scale of 0 to 100) | Plant response rating, Waterhemp ([13]; 62 g ai/ha, scale 0 to 100)
15: Crabgrass, Large plant response rating ([16]; 62 g ai/ha)
25: Plant response rating, Morningglory ([10]; 125 g ai/ha, scale of 0 to 100)
5: Plant response rating, Morningglory ([10]; 62 g ai/ha, scale 0 to 100) | Plant response rating, Nutsedge, Yellow ([11]; 125 g ai/ha, scale of 0 to 100) | Plant response rating, Barnyardgrass ([15]; 16 g ai/ha, scale 0 to 100) | Plant response rating, Crabgrass, Large ([16]; 16 g ai/ha, scale of 0 to 100) | Plant response rating, Crabgrass, Large ([16]; 31 g ai/ha, scale 0 to 100) | Plant response rating, Ryegrass, Italian ([17]; 16 g ai/ha, scale of 0 to 100)
98: Plant response rating, Waterhemp ([13]; 31 g ai/ha, scale 0 to 100)
70: Barnyardgrass plant response rating ([2]; 125 g ai/ha) | Foxtail, Giant plant response rating [5, 19] | Plant response rating, Velvetleaf ([12]; 125 g ai/ha, scale of 0 to 100)
30: Blackgrass plant response rating [3, 18] | Corn plant response rating (corn (Zea mays); [19]) | Foxtail, Giant plant response rating [5, 18] | Crabgrass, Large plant response rating ([16]; 125 g ai/ha)
40: Plant response rating, Velvetleaf ([12]; 62 g ai/ha, scale 0 to 100)
80: Ryegrass, Italian plant response rating [1, 19] | Blackgrass plant response rating [3, 19]
50: Ragweed plant response rating [7, 19]
95: Plant response rating, Lambsquarters ([9]; 125 g ai/ha, scale of 0 to 100) | Plant response rating, Lambsquarters ([9]; 62 g ai/ha, scale 0 to 100)
20: Ryegrass, Italian plant response rating [1, 18] | Barnyardgrass plant response rating ([2]; 31 g ai/ha) | Ragweed plant response rating [7, 18] | Wheat plant response rating [8, 19] | Barnyardgrass plant response rating ([15]; 125 g ai/ha) | Ryegrass, Italian plant response rating ([17]; 125 g ai/ha)
90: Galium plant response rating [4, 18] | Kochia plant response rating (kochia (Kochia scoparia); [18])
0: Plant response rating, Morningglory ([10]; 31 g ai/ha, scale 0 to 100) | Plant response rating, Nutsedge, Yellow ([11]; 31 g ai/ha, scale 0 to 100) | Plant response rating, Nutsedge, Yellow ([11]; 62 g ai/ha, scale 0 to 100) | Plant response rating, Wheat ([14]; 125 g ai/ha, scale of 0 to 100) | Plant response rating, Wheat ([14]; 31 g ai/ha, scale 0 to 100) | Plant response rating, Wheat ([14]; 62 g ai/ha, scale 0 to 100)
10: Corn plant response rating (corn (Zea mays); [18]) | Wheat plant response rating [8, 18] | Plant response rating, Lambsquarters ([9]; 31 g ai/ha, scale 0 to 100) | Plant response rating, Velvetleaf ([12]; 31 g ai/ha, scale 0 to 100) | Plant response rating, Barnyardgrass ([15]; 31 g ai/ha, scale 0 to 100) | Barnyardgrass plant response rating ([15]; 62 g ai/ha) | Plant response rating, Ryegrass, Italian ([17]; 31 g ai/ha, scale 0 to 100) | Ryegrass, Italian plant response rating ([17]; 62 g ai/ha)
